Measured values from ChEMBL document CHEMBL3627617, “Investigation of new 2-aryl substituted Benzothiopyrano[4,3-d]pyrimidines as kinase inhibitors targeting vascular endothelial growth factor receptor 2” (Eur J Med Chem, 2015).

What was measured:
HeLa = experiment: Antiproliferative activity against human HeLa cells assessed as cell viability after 72 hrs by trypan blue assay; assay type: functional
A-431 = experiment: Antiproliferative activity against human A431 cells assessed as cell viability after 72 hrs by trypan blue assay; assay type: functional; details: A-431, 72 h
MSTO-211H = experiment: Antiproliferative activity against human MSTO-211H cells assessed as cell viability after 72 hrs by trypan blue assay; assay type: functional
HUVEC = experiment: Antiproliferative activity against human HUVEC cells assessed as reduction in cell viability after 72 hrs by trypan blue assay; assay type: functional
[1] = molecular target: Epidermal growth factor receptor (Homo sapiens, UniProt P00533)
[2] = molecular target: RAC-alpha serine/threonine-protein kinase (Homo sapiens) (UniProt P31749); experiment: Inhibition of human Akt1 at 10 uM by kinase inhibition assay
[3] = molecular target: T1, Aurora kinase A (Homo sapiens) (UniProt O14965); experiment: Inhibition of human AurA kinase at 10 uM by kinase inhibition assay
T1 sequence (whole entry): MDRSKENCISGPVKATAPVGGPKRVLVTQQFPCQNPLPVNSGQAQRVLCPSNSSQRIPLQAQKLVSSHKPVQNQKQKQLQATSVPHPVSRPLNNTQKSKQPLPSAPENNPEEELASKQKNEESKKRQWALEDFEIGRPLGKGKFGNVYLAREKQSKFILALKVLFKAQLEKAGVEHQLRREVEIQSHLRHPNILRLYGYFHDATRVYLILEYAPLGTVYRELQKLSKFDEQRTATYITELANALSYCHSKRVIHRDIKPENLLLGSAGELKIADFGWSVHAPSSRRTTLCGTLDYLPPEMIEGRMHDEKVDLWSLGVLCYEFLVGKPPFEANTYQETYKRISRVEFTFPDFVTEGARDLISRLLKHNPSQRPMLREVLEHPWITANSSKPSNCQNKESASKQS

[4] = molecular target: Cyclin-dependent kinase 1 (Homo sapiens) (UniProt P06493); experiment: Inhibition of human CDK1 at 10 uM by kinase inhibition assay
[5] = molecular target: Mitogen-activated protein kinase 3 (Homo sapiens) (UniProt P27361); experiment: Inhibition of human ERK1 at 10 uM by kinase inhibition assay
[6] = molecular target: Focal adhesion kinase 1 (Homo sapiens) (UniProt Q05397); experiment: Inhibition of human FAK at 10 uM by kinase inhibition assay
[7] = molecular target: Dual specificity mitogen-activated protein kinase kinase 1 (Homo sapiens) (UniProt Q02750); experiment: Inhibition of human MEK1 at 10 uM by kinase inhibition assay
[8] = molecular target: Platelet-derived growth factor receptor beta (Homo sapiens) (UniProt P09619); experiment: Inhibition of human PDGFRbeta at 10 uM by kinase inhibition assay
[9] = molecular target: RAF proto-oncogene serine/threonine-protein kinase (Homo sapiens) (UniProt P04049); experiment: Inhibition of human RAF1 at 10 uM by kinase inhibition assay
[10] = molecular target: Rho-associated protein kinase 1 (Homo sapiens) (UniProt Q13464); experiment: Inhibition of human ROCK1 at 10 uM by kinase inhibition assay
[11] = molecular target: Proto-oncogene tyrosine-protein kinase Src (Homo sapiens) (UniProt P12931); experiment: Inhibition of human Src kinase at 10 uM by kinase inhibition assay
HL-60 = experiment: Antiproliferative activity against human HL60 cells assessed as growth inhibition; assay type: functional
Aorta [12] = experiment: Anti-angiogenic activity in rat aortic explant assessed as microvessel sprouting inhibition at 100 nM incubated for 7 days by rat aortic ring assay; assay type: functional; details: 168 h
Aorta [13] = experiment: Anti-angiogenic activity in rat aortic explant assessed as microvessel sprouting inhibition at 1 uM incubated for 7 days by rat aortic ring assay; assay type: functional; details: 168 h
Aorta [14] = experiment: Anti-angiogenic activity in rat aortic explant assessed as microvessel sprouting inhibition at 5 uM incubated for 7 days by rat aortic ring assay; assay type: functional; details: 168 h
Aorta [15] = experiment: Anti-angiogenic activity in rat aortic explant assessed as microvessel sprouting inhibition at 10 uM incubated for 7 days by rat aortic ring assay; assay type: functional; details: 168 h
[16] = molecular target: Vascular endothelial growth factor receptor 2 (Homo sapiens, UniProt P35968); experiment: Inhibition of human KDR incubated for 50 mins by omnia tyr peptide 8 substrate based fluorescence assay

RAC-alpha serine/threonine-protein kinase (Homo sapiens), sequence (P31749 whole entry): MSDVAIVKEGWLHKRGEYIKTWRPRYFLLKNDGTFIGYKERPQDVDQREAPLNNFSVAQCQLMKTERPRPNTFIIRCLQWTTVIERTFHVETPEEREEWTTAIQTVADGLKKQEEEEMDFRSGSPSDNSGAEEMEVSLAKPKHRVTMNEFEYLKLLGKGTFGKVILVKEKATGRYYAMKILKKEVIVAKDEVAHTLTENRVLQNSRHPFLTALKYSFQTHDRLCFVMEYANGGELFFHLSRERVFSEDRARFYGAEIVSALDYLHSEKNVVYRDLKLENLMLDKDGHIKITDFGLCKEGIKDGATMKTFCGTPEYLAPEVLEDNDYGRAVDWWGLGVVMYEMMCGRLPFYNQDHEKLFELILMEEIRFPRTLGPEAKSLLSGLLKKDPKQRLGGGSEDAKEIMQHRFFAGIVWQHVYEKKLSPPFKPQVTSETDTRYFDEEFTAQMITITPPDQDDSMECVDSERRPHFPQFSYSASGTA
Focal adhesion kinase 1 (Homo sapiens), sequence (Q05397 2-1052 limits assumed): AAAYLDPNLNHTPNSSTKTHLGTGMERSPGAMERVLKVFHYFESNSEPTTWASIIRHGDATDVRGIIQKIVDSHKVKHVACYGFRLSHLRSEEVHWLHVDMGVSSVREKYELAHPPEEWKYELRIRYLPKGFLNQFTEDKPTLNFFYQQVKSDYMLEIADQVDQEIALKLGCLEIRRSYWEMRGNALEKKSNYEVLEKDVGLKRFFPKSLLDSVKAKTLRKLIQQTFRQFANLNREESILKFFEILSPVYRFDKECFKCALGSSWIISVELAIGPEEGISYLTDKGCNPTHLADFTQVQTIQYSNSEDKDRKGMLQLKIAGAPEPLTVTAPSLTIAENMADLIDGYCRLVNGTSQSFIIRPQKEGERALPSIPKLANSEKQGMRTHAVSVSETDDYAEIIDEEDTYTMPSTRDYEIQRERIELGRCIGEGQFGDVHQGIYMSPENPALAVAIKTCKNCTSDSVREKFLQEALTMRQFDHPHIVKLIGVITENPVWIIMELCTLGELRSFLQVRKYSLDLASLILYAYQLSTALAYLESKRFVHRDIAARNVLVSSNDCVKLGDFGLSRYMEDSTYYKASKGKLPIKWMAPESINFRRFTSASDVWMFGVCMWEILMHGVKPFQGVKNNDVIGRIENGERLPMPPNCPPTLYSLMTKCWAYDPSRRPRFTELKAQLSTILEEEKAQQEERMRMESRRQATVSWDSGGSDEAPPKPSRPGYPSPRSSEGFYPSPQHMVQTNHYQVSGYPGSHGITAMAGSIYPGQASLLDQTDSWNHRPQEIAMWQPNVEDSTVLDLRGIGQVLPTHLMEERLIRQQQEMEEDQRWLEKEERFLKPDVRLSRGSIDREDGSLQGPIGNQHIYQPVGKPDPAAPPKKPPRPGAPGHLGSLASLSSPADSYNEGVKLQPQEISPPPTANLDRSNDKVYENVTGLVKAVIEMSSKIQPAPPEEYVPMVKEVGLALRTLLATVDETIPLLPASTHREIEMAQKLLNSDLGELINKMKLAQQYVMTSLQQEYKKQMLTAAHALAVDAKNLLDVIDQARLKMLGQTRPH
Mitogen-activated protein kinase 3 (Homo sapiens), sequence (P27361 whole entry): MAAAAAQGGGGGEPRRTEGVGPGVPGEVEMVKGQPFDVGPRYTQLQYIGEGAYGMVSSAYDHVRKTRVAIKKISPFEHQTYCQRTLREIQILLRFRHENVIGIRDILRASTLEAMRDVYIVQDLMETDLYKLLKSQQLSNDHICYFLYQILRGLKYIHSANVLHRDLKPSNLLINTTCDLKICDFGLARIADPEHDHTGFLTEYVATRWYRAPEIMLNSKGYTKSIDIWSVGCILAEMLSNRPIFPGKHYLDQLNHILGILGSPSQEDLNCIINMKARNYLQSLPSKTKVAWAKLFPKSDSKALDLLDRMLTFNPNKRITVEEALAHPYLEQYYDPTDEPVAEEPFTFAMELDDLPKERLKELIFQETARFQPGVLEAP
Rho-associated protein kinase 1 (Homo sapiens), sequence (Q13464 2-1354 limits assumed): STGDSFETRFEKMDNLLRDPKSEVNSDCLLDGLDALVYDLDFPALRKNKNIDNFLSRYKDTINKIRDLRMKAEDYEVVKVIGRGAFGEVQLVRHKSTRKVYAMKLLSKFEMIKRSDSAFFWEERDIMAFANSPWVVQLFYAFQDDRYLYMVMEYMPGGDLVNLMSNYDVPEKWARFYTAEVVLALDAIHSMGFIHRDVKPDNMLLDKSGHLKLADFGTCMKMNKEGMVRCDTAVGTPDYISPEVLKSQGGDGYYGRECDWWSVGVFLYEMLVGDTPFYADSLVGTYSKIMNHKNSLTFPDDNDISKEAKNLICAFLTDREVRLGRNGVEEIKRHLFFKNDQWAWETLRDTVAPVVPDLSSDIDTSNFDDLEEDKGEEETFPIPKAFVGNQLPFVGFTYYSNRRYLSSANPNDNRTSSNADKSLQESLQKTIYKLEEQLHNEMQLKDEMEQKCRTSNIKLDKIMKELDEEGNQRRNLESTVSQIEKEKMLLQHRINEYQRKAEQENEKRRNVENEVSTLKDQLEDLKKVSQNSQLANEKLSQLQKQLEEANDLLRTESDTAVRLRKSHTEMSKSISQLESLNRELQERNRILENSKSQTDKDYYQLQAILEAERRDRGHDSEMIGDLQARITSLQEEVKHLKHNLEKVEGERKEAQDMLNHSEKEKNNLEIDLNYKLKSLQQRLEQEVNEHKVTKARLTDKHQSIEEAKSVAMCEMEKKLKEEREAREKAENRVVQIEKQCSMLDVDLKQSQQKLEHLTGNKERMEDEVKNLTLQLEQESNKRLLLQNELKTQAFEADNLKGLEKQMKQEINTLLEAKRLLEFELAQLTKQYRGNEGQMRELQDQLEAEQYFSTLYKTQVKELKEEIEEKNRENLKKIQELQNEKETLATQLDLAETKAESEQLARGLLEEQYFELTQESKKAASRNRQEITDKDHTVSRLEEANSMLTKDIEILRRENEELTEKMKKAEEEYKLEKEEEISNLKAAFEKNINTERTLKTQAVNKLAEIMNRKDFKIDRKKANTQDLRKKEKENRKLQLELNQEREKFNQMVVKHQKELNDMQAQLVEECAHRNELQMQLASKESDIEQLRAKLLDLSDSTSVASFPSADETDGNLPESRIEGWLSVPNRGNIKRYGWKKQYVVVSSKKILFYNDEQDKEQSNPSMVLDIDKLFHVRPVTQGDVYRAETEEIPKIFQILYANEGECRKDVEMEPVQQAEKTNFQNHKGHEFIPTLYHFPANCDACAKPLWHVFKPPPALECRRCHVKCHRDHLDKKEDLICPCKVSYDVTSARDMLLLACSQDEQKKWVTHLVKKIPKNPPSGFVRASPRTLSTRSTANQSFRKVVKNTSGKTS
Epidermal growth factor receptor, sequence (P00533 whole entry): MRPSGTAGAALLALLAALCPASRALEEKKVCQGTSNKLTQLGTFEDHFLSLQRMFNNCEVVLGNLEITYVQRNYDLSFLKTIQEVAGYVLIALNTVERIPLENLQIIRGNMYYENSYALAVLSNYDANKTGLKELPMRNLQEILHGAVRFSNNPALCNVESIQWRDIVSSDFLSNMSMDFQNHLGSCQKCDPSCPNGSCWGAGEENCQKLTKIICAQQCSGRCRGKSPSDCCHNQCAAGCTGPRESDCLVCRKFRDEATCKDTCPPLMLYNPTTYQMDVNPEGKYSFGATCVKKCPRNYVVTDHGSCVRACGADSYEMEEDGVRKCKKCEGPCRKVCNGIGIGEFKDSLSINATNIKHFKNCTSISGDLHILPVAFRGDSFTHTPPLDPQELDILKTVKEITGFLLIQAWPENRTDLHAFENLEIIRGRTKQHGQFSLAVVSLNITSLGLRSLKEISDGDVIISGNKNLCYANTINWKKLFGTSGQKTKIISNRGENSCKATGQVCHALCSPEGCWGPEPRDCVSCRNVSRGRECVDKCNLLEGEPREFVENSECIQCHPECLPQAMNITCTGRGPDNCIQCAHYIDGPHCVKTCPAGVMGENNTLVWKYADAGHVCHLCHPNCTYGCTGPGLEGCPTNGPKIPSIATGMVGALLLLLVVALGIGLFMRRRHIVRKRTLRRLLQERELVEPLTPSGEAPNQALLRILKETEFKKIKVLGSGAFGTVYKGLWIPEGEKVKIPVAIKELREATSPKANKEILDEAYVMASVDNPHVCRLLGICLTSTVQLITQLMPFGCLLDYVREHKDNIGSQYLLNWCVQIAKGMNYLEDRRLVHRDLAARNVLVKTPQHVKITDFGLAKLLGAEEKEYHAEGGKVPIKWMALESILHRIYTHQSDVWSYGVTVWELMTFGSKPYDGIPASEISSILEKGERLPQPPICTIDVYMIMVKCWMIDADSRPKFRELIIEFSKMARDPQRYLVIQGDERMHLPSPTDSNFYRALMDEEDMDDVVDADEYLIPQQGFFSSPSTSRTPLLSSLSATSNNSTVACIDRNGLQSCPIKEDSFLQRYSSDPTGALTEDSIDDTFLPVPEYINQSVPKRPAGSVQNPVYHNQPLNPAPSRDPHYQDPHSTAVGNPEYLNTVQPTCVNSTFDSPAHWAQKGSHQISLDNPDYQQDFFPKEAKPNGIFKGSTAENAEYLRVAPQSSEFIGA
Dual specificity mitogen-activated protein kinase kinase 1 (Homo sapiens), sequence (Q02750 whole entry): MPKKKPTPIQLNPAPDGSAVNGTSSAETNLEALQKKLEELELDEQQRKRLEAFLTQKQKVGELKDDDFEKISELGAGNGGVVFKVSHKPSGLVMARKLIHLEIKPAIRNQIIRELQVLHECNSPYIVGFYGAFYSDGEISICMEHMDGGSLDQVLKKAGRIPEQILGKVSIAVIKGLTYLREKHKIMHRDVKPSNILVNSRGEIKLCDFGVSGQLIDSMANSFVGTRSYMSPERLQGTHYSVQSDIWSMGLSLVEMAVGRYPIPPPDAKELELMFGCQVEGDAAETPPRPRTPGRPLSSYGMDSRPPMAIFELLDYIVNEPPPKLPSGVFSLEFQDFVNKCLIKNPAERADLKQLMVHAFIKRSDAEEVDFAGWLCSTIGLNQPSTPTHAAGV

For `Clc1ccc(-c2ncc3c(n2)-c2ccccc2SC3)cc1`, the GI50 (HeLa) was > 20 µM, the GI50 (A-431) was > 20 µM and the GI50 (MSTO-211H) was > 20 µM. The GI50 (HUVEC) was 11.3 µM.

With `Clc1ccc(CNc2ncc3c(n2)-c2ccccc2SC3)cc1` the GI50 (HeLa) was > 20 µM, the GI50 (A-431) was > 20 µM and the GI50 (MSTO-211H) was > 20 µM. The GI50 (HUVEC) was 12.3 µM.

For `COc1ccc(-c2ncc3c(n2)-c2ccc(Cl)cc2SC3)cc1`, the GI50 (HeLa) was > 20 µM, the GI50 (A-431) was > 20 µM and the GI50 (MSTO-211H) was > 20 µM. The GI50 (HUVEC) was 4.7 µM.

For `COc1ccc2c(c1)SCc1cnc(-c3ccccc3)nc1-2`, the IC50 [1] was 4.72 µM, the GI50 (HeLa) was > 20 µM and the GI50 (A-431) was 6.5 µM. The GI50 (MSTO-211H) was 11.9 µM, the GI50 (HUVEC) was 2.9 µM and the inhibition [2] was -4%. It also gave an inhibition [3] of -2.2%, an inhibition [4] of -4.2% and an inhibition [5] of -1.7%. It also gave an inhibition [6] of 11.6%, an inhibition [7] of 14.6% and an inhibition [8] of -6%. The inhibition [9] was 2.6%, the inhibition [10] was -6.3% and the inhibition [11] was 0.3%.

For `COc1ccc2c(c1)SCc1ncc(-c3ccccc3)nc1-2`, the GI50 (HL-60) was 7.15 µM.

`Cc1cc(C)c(/C=C2\C(=O)Nc3ccccc32)[nH]1` [SEMAXANIB] showed a GI50 (HUVEC) of 13.6 µM, an inhibition at 0.1 µM (Aorta [12]) of -12% and an inhibition at 1 µM (Aorta [13]) of -2%. It also gave an inhibition at 5 µM (Aorta [14]) of 72% and an inhibition at 10 µM (Aorta [15]) of 100%.

With `COc1ccc(CNc2ncc3c(n2)-c2ccccc2SC3)cc1` the GI50 (HeLa) was > 20 µM, the GI50 (A-431) was > 20 µM and the GI50 (MSTO-211H) was > 20 µM. For the same molecule, the GI50 (HUVEC) was > 20 µM.

In the case of `COc1ccc(-c2ncc3c(n2)-c2ccccc2SC3)cc1`, the GI50 (HeLa) is reported as > 20 µM, the GI50 (A-431) is reported as > 20 µM and the GI50 (MSTO-211H) is reported as > 20 µM. For the same molecule, the GI50 (HUVEC) was 12 µM.

In the case of `Clc1ccc2c(c1)SCc1cnc(-c3ccccc3)nc1-2`, the GI50 (HeLa) is reported as > 20 µM, the GI50 (A-431) is reported as > 20 µM and the GI50 (MSTO-211H) is reported as > 20 µM. It also gave a GI50 (HUVEC) of 2.3 µM.

With `c1ccc(-c2ncc3c(n2)-c2ccccc2SC3)cc1` the GI50 (HeLa) was > 20 µM, the GI50 (A-431) was > 20 µM and the GI50 (MSTO-211H) was > 20 µM. It also gave a GI50 (HUVEC) of 4 µM.

Molecule `Clc1ccc(Nc2ncc3c(n2)-c2ccc(Cl)cc2SC3)cc1` has an IC50 [1] of 45.7 µM, a GI50 (HeLa) of 1.5 µM and a GI50 (A-431) of 2.2 µM. For the same molecule, the GI50 (MSTO-211H) was 1.6 µM, the IC50 [16] was 5.6 µM and the GI50 (HUVEC) was 0.35 µM. It also gave an inhibition at 0.1 µM (Aorta [12]) of -0.5%, an inhibition at 1 µM (Aorta [13]) of 15% and an inhibition at 5 µM (Aorta [14]) of 88%. For the same molecule, the inhibition at 10 µM (Aorta [15]) was 98%, the inhibition [2] was 3% and the inhibition [3] was 0%. It also gave an inhibition [4] of -3.2%, an inhibition [5] of -4.3% and an inhibition [6] of -0.9%. It also gave an inhibition [7] of 5.9%, an inhibition [8] of 2.5% and an inhibition [9] of -1.5%. It also gave an inhibition [10] of -5.6% and an inhibition [11] of 8.8%.

For `COc1ccc2c(c1)SCc1cnc(NCc3ccccc3)nc1-2`, the GI50 (HeLa) was > 20 µM, the GI50 (A-431) was > 20 µM and the GI50 (MSTO-211H) was > 20 µM. For the same molecule, the GI50 (HUVEC) was > 20 µM.

With `c1ccc(CNc2ncc3c(n2)-c2ccccc2SC3)cc1` the GI50 (HeLa) was > 20 µM, the GI50 (A-431) was > 20 µM and the GI50 (MSTO-211H) was > 20 µM. For the same molecule, the GI50 (HUVEC) was > 20 µM.

In the case of `c1ccc(Nc2ncc3c(n2)-c2ccccc2SC3)cc1`, the GI50 (HeLa) is reported as 10.2 µM, the GI50 (A-431) is reported as > 20 µM and the GI50 (MSTO-211H) is reported as 11.7 µM. It also gave an IC50 [16] of 8.2 µM and a GI50 (HUVEC) of 2.4 µM.
